Key:
[1] = target: T1, human CD28 on PCD28.1.s2.1 cells (Homo sapiens, UniProt P10747); assay: Flow cytometry binding to cells expressing cell-surface CD28; assay type: cell-based; conditions: on ice
T1 construct: expressed in transfected cells; host or cells: PCD28.1.s2.1 (PE30.2 murine T-cell hybridoma transfected with pHbactCd28neo)
Experimental: Non-adherent CD28 expressing cells (PCD28.1.s2.1) were used for this assay format. PCD28.1.S2.1 cells were created by transfection of PE30.2 cells [D. Emilie et al., Eur. J. Immunol., 19:1619-1624 (1989)] with a vector for expression of human CD28 [D. Couez et al., Molecular Immunology, 31:47-57 (1994)]. All incubations were carried out on ice. Unlabelled CD80- and CD86-Igαtp or CD80 and CD86-Ig were incubated with the cells in binding buffer consisting of PBS w/o Ca+2/Mg+2, 0.2% bovine serum albumin and 0.1 % sodium azide. After washing twice in binding buffer, bound fusion proteins were detected with a 1:2000 dilution of a goat anti-human polyclonal antibody labeled with FITC (Flourescein isothiocyanate, Southern Biotech). Following two additional washes in binding buffer, the cells were resuspended in binding buffer and analyzed on a FACSort analyzer (Becton-Dickinson) using a 488 nm laser.

[2] = tested on: murine T-cell hybridoma cell lines expressing human CD28 (PCD28.1.s2.1, DCL27CD28wt.s2); assay: IL-2 production by CD28 T-cell hybridomas (CTLL-2 bioassay); assay type: cell-based; conditions: for IL-2 response: cross-linked with GAH antibody, no CD3 antibody; for level of IL-2 response at near saturation: soluble protein 1 ug/ml (FIG. 20C)
Source text: The CD80- and CD86-Igαtp proteins were compared to the corresponding CD80 and CD86-Ig proteins to determine their ability to stimulate cells expressing human CD28 using two murine T-cell hybridoma cell lines expressing human CD28, PCD28.1.s2.1 and DCL27CD28wt.s2. The PCD28.1.s2.1 cell line was described in Example 1, part 3. The DCL27CD28wt.s2 cell line was created by transfection of the DC27 cell line [F. Pages et al., Nature, 369:327-329 (1994); F. Pages et al., J. Biol. Chem., 271(16):9403-9409 (1996)] with the same CD28 expression vector used for the PCD28.1.s2.1 cells [D. Couez et al., Molecular Immunology, 31:47-57 (1994)]. These cell lines were examined for their ability to produce IL-2 in response to activation with CD80- and CD86-Ig in comparison with the corresponding Igαtp fusion proteins. 96-well plates were coated with or without a CD3 antibody together with the CD80 and CD86 fusion proteins. This was accomplished by first incubating the plates with a previously determined suboptimal concentration of hamster […] CD3 antibody (MAb 145-2C11, Boerhinger-Mannheim Biochemicals) for two hours at room temperature (RT) or with just buffer alone, washing the plates with PBS, adding goat anti-human Ig heavy chain (GAH-IgHc, Sigma Chemical Co.) for an additional two hours at RT, washing again and coating with different concentrations of the CD80 or CD86 fusion protein for 16-18 hours at 4° C., washing again, and finally blocking for 30 min. with 0.2% BSA-PBS. T cells (1×10^5/well) were added in 150 μl medium into duplicate wells. For comparison, the soluble fusion proteins and the 248.23.2 CD28 MAb (IgM) [A. Morretta, University of Genova, Italy] were added to non-coated wells. T cells were incubated in the wells for 24 hours at 37° C., and supernatants were collected and evaluated for IL-2 levels in a standard CTLL-2 bioassay [S. M. Gillis et al., J. Immunol., 120:2027 (1978)]. Briefly, 1×10^4 IL-2 dependent CTLL-2 cells (ATCC)/well in 75 μl medium were added to an equal volume of test supernatant and incubated for 24 hours at 37° C. The cells were pulsed with 10 μl of 5 mg/ml MTT (Sigma Chemical Co.) for 4 hours, and lysed with […] 10% SDS/0.01N HCl solution for 14-16 hours. OD570 readings were converted into ng/ml of IL-2 based on a standard curve generated by treating cells with known concentrations of IL-2.
(§1) IL-2 promoter activity and IL-2 levels were measured similarly to that described in parts A and B above, except that proliferation of the reader CTLL-2 cells was measured by ^3H-thymidine incorporation.

[3] = tested on: PCD28.1.S2.1 cells (human CD28, lacZ fused to the IL-2 promoter); assay: FDG assay for IL-2 promoter activity (lacZ reporter); assay type: cell-based, murine; conditions: added directly to PC28.1.s2.1 cells in solution (FIG. 20A)
Experimental: A second assay for agonist activity measured induction of IL-2 promoter activity, rather than production of IL-2 protein. The PCD28.1.S2.1 cells described above also contain lacZ fused to the IL-2 promoter. Thus, the PCD28.1.S2.1 cell line provides a convenient system for measuring IL-2 promoter activity upon CD28-mediated T cell simulation. T cells were activated as described above for the CTLL-2 assay, spun down, resuspended in 50 μl of media+50 μl of PBS, lysed with 10 μl of 20% Triton X-100, and supplemented with 25 μl of 10 mM FDG (Molecular Probes), a fluorogenic substrate for b-galactosidase. Hydrolysis of FDG first yields fluorescein monogalactoside (FMG) and then the highly fluorescent product fluorescein. Cell lysates were incubated with FDG for 60 min., and the levels of fluorescence were measured by Fluoroscan (MTX Lab Systems, Inc).
as §1

CD28-Ig = CD28-Ig (Homo sapiens, UniProt P10747); parameters: Ig fusion partner; conditions: read-out: approximate Kd of soluble CD80-Ig binding to immobilized CD28-Ig; Linsley et al. 1991; cited from earlier work
CTLA4-Ig = target: T2, CTLA4-Ig (Homo sapiens, UniProt P16410, F162A); assay: Isothermal titration calorimetry, binding to CTLA4-Ig in solution
T2 construct: junction spanning the end of the CTLA4 extracellular domain and the hinge region; human IgG1 Fc (hinge/CH2/CH3); made in house; host or cells: CHO cells (by 'in a similar manner' to CD28-Ig)
T2 sequence (P16410 38-162 F162A): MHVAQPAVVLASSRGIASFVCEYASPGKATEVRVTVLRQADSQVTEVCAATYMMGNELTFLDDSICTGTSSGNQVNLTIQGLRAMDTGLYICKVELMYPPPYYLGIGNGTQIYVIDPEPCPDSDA
Source text: The solution binding properties of the hexameric and standard Ig fusion proteins of CD80 and CD86 were compared using isothermal titration calorimetry, essentially as described previously for other proteins [K. Johanson et. al., J. Biol. Chem, 270: 9459-9471 (1995), and references therein].
The error in Kd's is about a factor of 2 and the error in molar binding ratio's is 10-20%. […] The molecular masses of CD80-Igαtp and CD86-Igαtp were estimated as 6× the mass of the respective Ig proteins plus 40,000 Da. contributed by the twelve tailpiece segments.

[4] = added directly to PC28.1.s2.1 cells in solution, CTLL-2 3H-thymidine incorporation (FIG. 20B)
[5] = soluble protein, absence of CD3 crosslinking

CD80-Ig: CD80 leader and extracellular domain grafted onto human IgG1 heavy chain Fc region; monomeric Ig fusion (Ig homodimer) [reference compound]
binding to CD28 positive cells [1]: no binding | IL-2 production [2, 4]: no stimulation | IL-2 response [2]: did not give a response | IL-2 production [2, 5]: no activity | IL-2 promoter activity [3]: no stimulation | Kd (CD28-Ig): ~200 nM

CD80-Igαtp: CD80 leader and extracellular domain linked to human IgG1 hinge/CH2/CH3 and terminating in human IgA1 tailpiece (αtp)
ratio of Igαtp to Ig titration equivalence points (molar ratio) (CTLA4-Ig): about 6 | binding to CD28 positive cells [1]: specific binding | IL-2 production [2, 4]: dose dependent stimulation | IL-2 response [2]: increased the IL-2 response | level of IL-2 response at near saturation [2]: comparable to that observed for stimulation through cross-linking of CD3 with immobilized CD3 antibody | IL-2 production [2, 5]: induced IL-2 production | IL-2 promoter activity [3]: dose dependent stimulation

CD86-Igαtp: CD86 leader and extracellular domain linked to human IgG1 Fc and terminating in human IgA1 tailpiece (αtp)
binding to CD28 positive cells [1]: specific binding | IL-2 production [2, 4]: dose dependent stimulation | IL-2 response [2]: increased the IL-2 response | level of IL-2 response at near saturation [2]: comparable to that observed for stimulation through cross-linking of CD3 with immobilized CD3 antibody | IL-2 production [2, 5]: induced IL-2 production | IL-2 promoter activity [3]: dose dependent stimulation
